Measurements taken from patent publication US10457709B2, “Antimicrobial peptides, their variants and uses” (priority 2015, dated 2019).
In brackets after ≈: the same amount, converted by molar mass. Ends that are not written are not given here.

What was measured:
[1] = test system: Klebsiella pneumoniae (ATCC 10031); assay: microbe, parasite or virus in culture; type: cell-based
Procedure: (§1) Minimum inhibition concentrations (MICs) were determined against Escherichia coli (ATCC 25922), Staphylococcus aureus (ATCC 25923), Klebsiella pneumoniae (ATCC 10031) and Pseudomonas aeruginosa (ATCC 27853). Also clinical strains of E. coli, K. pneumoniae, E. cloacae, P. aeruginosa, Serratia marcescens, Proteus mirabilis, S. pneumoniae, Acinetobacter baumannii, A. johnsonii and S. aureus were used for MICs assays. Additionally, clinical strains of yeast including Candida albicans, C. glabrata, C. parapsilosis and C. quillermondiae were used. The susceptibility of these microorganisms to Chain peptides were determined using micro broth dilution assay. Colonies of the respective microorganism from Muller Hinton (MH) agar plates incubated overnight were suspended in MH broth media and final concentration of microorganism was adjusted to 5.0×10^5 cfu/ml. An aliquot of 10 μl of each Chain peptide, or gentamicin, tetracycline as reference antibiotics were added in differing concentrations along with 90 μl of bacterial suspension to 96 well polypropylene plates and incubated at 37° C. for 20 to 24 hours. Concentrations of Chain peptides and reference antibiotics ranged from 0.125 to 128 μg/ml and the MICs were recorded as the lowest concentration with no visual growth of bacteria. Similarly, antifungal MICs were tested in Potato dextrose broth.

[2] = test system: Pseudomonas aeruginosa (ATCC 27853); assay: microbe, parasite or virus in culture; type: cell-based
Procedure: as §1

[3] = test system: Staphylococcus aureus (ATCC 25923); assay: microbe, parasite or virus in culture; type: cell-based
Procedure: as §1

[4] = test system: Escherichia coli (ATCC 25922); assay: microbe, parasite or virus in culture; type: cell-based
Procedure: as §1

[5] = test system: C. glabrata clinical strains; assay: MIC, clinical yeast strains; type: cell-based, Candida glabrata; design: unit: µg/ml
Procedure: as §1
(§2) Clinical strains of yeasts including Candida albicans, C. glabrata, C. parapsilosis and C. quillermondiae were also tested with the 12 Chain peptides. The minimum inhibitory concentration (MICs) varied between these peptides and are presented in Tables 4a, 4b, 4c and 5a, 5b, 5c. Peptides Chain 105, 201 and 308 are broad spectrum antimicrobials with MICs between 0.5-32 μg/ml against all the bacteria and yeasts tested, except Serratia marcescens and Proteus mirabilis, against which the MICs were between 64-128 μg/ml. Peptide Chain 306 has narrow spectrum activity against E. coli at 1 μg/ml and for the rest of the bacterial strains at >32 μg/ml (FIG. 10c).

[6] = test system: C. parapsilosis clinical strains; assay: MIC, clinical yeast strains; type: cell-based, Candida parapsilosis; design: unit: µg/ml
Procedure: as §1, §2

[7] = test system: Candida albicans clinical strains; assay: MIC, clinical yeast strains; type: cell-based; design: unit: μg/ml
Procedure: as §1, §2

[8] = test system: C. quillermondiae clinical strains; assay: MIC, clinical yeast strains; type: cell-based, Candida quillermondiae; design: unit: μg/ml; conditions: C. quillermondiae clinical yeast strain 1
Procedure: as §1, §2

| Molecule | Minimum inhibitory concentration, Klebsiella pneumoniae (ATCC 10031) [1] | Minimum inhibitory concentration, Pseudomonas aeruginosa (ATCC 27853) [2] | Minimum inhibitory concentration, Staphylococcus aureus (ATCC 25923) [3] | Minimum inhibitory concentration, Escherichia coli (ATCC 25922) [4] | further results |
| --- | --- | --- | --- | --- | --- |
| WWRLHAKKKLW [Chain107] | >128 µg/mL | >128 µg/mL | >128 µg/mL | 64 µg/mL |  |
| KKRLHRKRLRK [Chain102] | >128 µg/mL | >128 µg/mL | >128 µg/mL | >128 µg/mL |  |
| WWRLHAKRKLW [Chain108] | >128 µg/mL | >128 µg/mL | >128 µg/mL | >128 µg/mL |  |
| WIRLHWKRLRK [Chain106] | >128 µg/mL | 64 µg/mL | >128 µg/mL | >128 µg/mL |  |
| RLKWFWLRKLK [Chain305] | 64 µg/mL | 16 µg/mL | 64 µg/mL | 128 µg/mL |  |
| YDKGFGLFKKM [Chain300] | >128 µg/mL | >128 µg/mL | >128 µg/mL | >128 µg/mL |  |
| KRIVRWRKLKRK [Chain207] | >128 µg/mL | >128 µg/mL | >128 µg/mL | >128 µg/mL |  |
| RRIVKLRWFKR [Chain203] | >128 µg/mL | >128 µg/mL | >128 µg/mL | 32 µg/mL |  |
| WRKWFWLFKKR [Chain309] | 64 µg/mL | 8 µg/mL | 32 µg/mL | 32 µg/mL |  |
| KRIVRWRTRKR [Chain205] | >128 µg/mL | >128 µg/mL | >128 µg/mL | 64 µg/mL |  |
| DCWSAMIRLHAKYNQV [Chain100] | >128 µg/mL | >128 µg/mL | >128 µg/mL | >128 µg/mL |  |
| KRIVRWRWRKR [Chain206] | >128 µg/mL | >128 µg/mL | >128 µg/mL | 16 µg/mL |  |
| IIKRFRLFKKL [Chain301] | >128 µg/mL | 64 µg/mL | >128 µg/mL | 64 µg/mL |  |
| WRIVRWRKLKR [Chain209] | >128 µg/mL | >128 µg/mL | >128 µg/mL | 64 µg/mL |  |
| IWKRFRLFKKR [Chain303] | >128 µg/mL | >128 µg/mL | >128 µg/mL | 64 µg/mL |  |
| KLRLHAKRLRK [Chain103] | >128 µg/mL | >128 µg/mL | >128 µg/mL | >128 µg/mL |  |
| CN(C)[C@@H]1C(O)=C(C(N)=O)C(=O)[C@@]2(O)C(O)=C3C(=O)c4c(O)cccc4[C@@](C)(O)[C@H]3C[C@@H]12 [Tetracycline, reference compound] |  |  |  |  | MIC ([1]; Klebsiella pneumoniae, ATCC10031, read-out: Minimum inhibitory concentration, Klebsiella pneumoniae (ATCC 10031)): 2 µg/mL (≈ 4.5 µM); MIC ([2]; Pseudomonas aeruginosa, ATCC27853, read-out: Minimum inhibitory concentration, Pseudomonas aeruginosa (ATCC 27853)): 32 µg/mL (≈ 72 µM); MIC ([3]; Staphylococcus aureus, ATCC25923, read-out: Minimum inhibitory concentration, Staphylococcus aureus (ATCC 25923)): 2 µg/mL (≈ 4.5 µM); MIC ([4]; Escherichia coli, ATCC25922, read-out: Minimum inhibitory concentration, Escherichia coli (ATCC 25922)): 8 µg/mL (≈ 18 µM) |
| KLKKFKLFKKR [Chain312] | >128 µg/mL | >128 µg/mL | >128 µg/mL | >128 µg/mL |  |
| RKIVKKRTFKR [Chain202] | >128 µg/mL | 1 µg/mL | >128 µg/mL | >128 µg/mL |  |
| KIRLHRKRLRK [Chain101] | >128 µg/mL | >128 µg/mL | >128 µg/mL | >128 µg/mL |  |
| ILKRWWLFKKL [Chain302] | >128 µg/mL | 16 µg/mL | 128 µg/mL | >128 µg/mL |  |
| RLKRFRLFRKRK [Chain313] | >128 µg/mL | 64 µg/mL | >128 µg/mL | 32 µg/mL |  |
| WRILRWRKLKR [Chain208] | >128 µg/mL | 32 µg/mL | >128 µg/mL | 32 µg/mL |  |
| C[C@@H]1[C@H](O)[C@@H](C)/C=C/C=C/C=C/C=C/C=C/C=C/C=C/[C@H](O[C@@H]2O[C@H](C)[C@@H](O)[C@H](N)[C@@H]2O)C[C@@H]2O[C@](O)(C[C@@H](O)C[C@@H](O)[C@H](O)CC[C@@H](O)C[C@@H](O)CC(=O)O[C@H]1C)C[C@H](O)[C@H]2C(=O)O [Amphotericin B] |  |  |  |  | Minimum inhibitory concentration ([5]; C. glabrata clinical yeast strain 1): 4; Minimum inhibitory concentration ([5]; C. glabrata clinical yeast strain 2): 4; Minimum inhibitory concentration ([5]; C. glabrata clinical yeast strain 3): 2; Minimum inhibitory concentration ([5]; C. glabrata clinical yeast strain 4): 4; Minimum inhibitory concentration ([6]; C. parapsilosis clinical yeast strain 1): 2; Minimum inhibitory concentration ([6]; C. parapsilosis clinical yeast strain 2): 2; Minimum inhibitory concentration ([6]; C. parapsilosis clinical yeast strain 3): 2; Minimum inhibitory concentration ([6]; C. parapsilosis clinical yeast strain 4): 2; Minimum inhibitory concentration ([7]; Candida albicans clinical yeast strain 1): 2; Minimum inhibitory concentration ([7]; Candida albicans clinical yeast strain 2): 0.5; Minimum inhibitory concentration ([7]; Candida albicans clinical yeast strain 3): 2; Minimum inhibitory concentration ([7]; Candida albicans clinical yeast strain 4): 2; Minimum inhibitory concentration ([7]; Candida albicans clinical yeast strain 5): 2; Minimum inhibitory concentration [8]: 2 |
| IWKRFRLFKKW [Chain304] | 64 µg/mL | 8 µg/mL | 32 µg/mL | 16 µg/mL |  |
| WRIVQWRKLKR [Chain210] | >128 µg/mL | >128 µg/mL | >128 µg/mL | >128 µg/mL |  |
| KLKWFWLFKKR [Chain311] | 32 µg/mL | 8 µg/mL | 32 µg/mL | 16 µg/mL |  |
